This experiment deals with T1, PpUGT73CR1.
T1 construct: gene UGT73CR1; tag removal not mentioned
The experiment can be described thus: HPLC quantification of product. The class given is biochemical, Paris polyphylla var. yunnanensis. To be noted: 5 mM UDP-glucose, 50 mM Tris-HCl pH 8.0, 37 °C, 30 min, 20-400 µM acceptor. From the text: HPLC quantification of product on PpUGT73CR1

Structures are written as SMILES.

For `C[C@@H]1CC[C@@]2(OC1)O[C@H]1C[C@H]3[C@@H]4CC=C5C[C@@H](O)CC[C@]5(C)[C@H]4CC[C@]3(C)[C@H]1[C@@H]2C` [diosgenin], the Km – broadly, the substrate concentration at which the rate is half of its maximum – (product trillin) was 53.7 ± 9.37 µM.

Regarding `C[C@@H]1CC[C@@]2(OC1)O[C@H]1C[C@H]3[C@@H]4CC=C5C[C@@H](O)CC[C@]5(C)[C@H]4CC[C@]3(C)[C@@]1(O)[C@@H]2C` [pennogenin], the Km (product floribundasaponin A) was found to be 73.4 ± 8.16 µM.

The values are drawn from article PMC8758714, “Effective prediction of biosynthetic pathway genes involved in bioactive polyphyllins in Paris polyphylla” (Communications Biology, 2022).
